The test system of data set [1] is P/Q-type channels (Cav2.1). The class given is cell-based, mouse.
The test system of the next data set is L-type. The class given is cell-based, mouse.
Data set [2] deals with CFA-injected mice (C57 Bl6). As to conditions: mouse, in vivo.
In the next data set the test system is patients. As to conditions: in vivo; cited from earlier work.
Data set [3] concerns N-type calcium channels with auxiliary subunits. Particulars: cited from earlier work.

Several values for one entry are separate records, joined by “and”; a condition that tells them apart may be missing. Identical values can stand only once. Entries after “also recorded” stand apart in the source; their conditions may differ. Positions of bridges follow the written chain, without caps; N, C: chain ends. Residues, ends and D or L forms follow the SMILES beside them.

With ω-agatoxin IVA, the “inhibition of total ICa (P/Q-type contribution)” value in data set [1] was “approximately 30%”.
Regarding `COCCOC(=O)C1=C(C)NC(C)=C(C(=O)OC(C)C)C1c1cccc([N+](=O)[O-])c1` (centres unmarked) [nimodipine], the “inhibition of total ICa (L-type contribution)” value in the data set on L-type is 5% and 4%.
In the case of `C[C@@H]1NC(=O)CNC(=O)[C@H](CCCCN)NC(=O)CNC(=O)[C@H](CCCCN)NC(=O)[C@@H](N)CSSC[C@@H]2NC(=O)[C@@H]3CSSC[C@@H](C(N)=O)NC(=O)[C@H](CCCNC(=N)N)NC(=O)CNC(=O)[C@H](CO)NC(=O)[C@H](CCCNC(=N)N)NC(=O)[C@H](CSSC[C@H](NC(=O)[C@H](CO)NC1=O)C(=O)N[C@@H](CCCNC(=N)N)C(=O)N[C@@H](CCCNC(=N)N)C(=O)N[C@@H]([C@@H](C)O)C(=O)N[C@@H](CO)C(=O)N[C@@H](Cc1ccc(O)cc1)C(=O)N[C@@H](CC(=O)O)C(=O)N3)NC(=O)[C@H](CO)NC(=O)CNC(=O)[C@H]([C@@H](C)O)NC2=O` [CVIE], the “reversal of CFA-induced incapacitance (impaired weight bearing)” value (shortened to “reversal of CFA-induced incapacitance”) in data set [2] is listed as “partially reversed impaired weight bearing; also recorded: most effective at reversing mechanical alldoynia; also recorded: significant reversal of incapacitance; also recorded: most effective at reversal of pain; also recorded: reverse signs of inflammatory pain”.
With `CC(C)C[C@@H]1NC(=O)[C@H](CCCNC(=N)N)NC(=O)[C@@H]2CSSC[C@@H]3NC(=O)[C@H](CO)NC(=O)[C@H](C)NC(=O)CNC(=O)[C@H](CCCCN)NC(=O)CNC(=O)[C@H](CCCCN)NC(=O)[C@@H](N)CSSC[C@H](NC(=O)[C@H](CSSC[C@@H](C(N)=O)NC(=O)[C@H](CCCNC(=N)N)NC(=O)CNC1=O)NC(=O)[C@H](CC(=O)O)NC(=O)[C@H](Cc1ccc(O)cc1)NC(=O)[C@H](CO)NC(=O)[C@H]([C@@H](C)O)NC(=O)[C@H](CCCNC(=N)N)NC(=O)[C@H](CCCNC(=N)N)NC3=O)C(=O)N[C@@H]([C@@H](C)O)C(=O)NCC(=O)N[C@@H](CO)C(=O)N2` [CVIF] (H-CKGKGASCRRTSYDCCTGSCRLGRC-NH2; disulfide 1-16, 8-20, 15-25), the “reversal of CFA-induced incapacitance” value in data set [2] is reported as “did not produce significant reversal of incapacitance”.
As to `CSCC[C@@H]1NC(=O)[C@H](CC(C)C)NC(=O)[C@H](CCCCN)NC(=O)[C@H](CO)NC(=O)[C@@H]2CSSC[C@@H]3NC(=O)[C@H](CO)NC(=O)CNC(=O)[C@H](CO)NC(=O)[C@H](CSSC[C@H](N)C(=O)N[C@@H](CCCCN)C(=O)N[C@@H](CO)C(=O)N[C@@H](CCCCN)C(=O)NCC(=O)N[C@@H](C)C(=O)N[C@@H](CCCCN)C(=O)N2)NC(=O)[C@H](CSSC[C@@H](C(N)=O)NC(=O)[C@H](CCCNC(=N)N)NC(=O)CNC(=O)[C@H](C(C)C)NC(=O)[C@H]([C@@H](C)O)NC(=O)CNC(=O)[C@H](CO)NC3=O)NC(=O)[C@H](CC(=O)O)NC(=O)[C@H](Cc2ccc(O)cc2)NC1=O` [CVID] (H-CKSKGAKCSKLMYDCCSGSCSGTVGRC-NH2; disulfide 1-16, 8-20, 15-27), in the data set with patients, the “side-effect profile of irreversible ω-conotoxins” value is listed as “high side-effect profile”. Also, in data set [3], the “affinity for N-type calcium channels in presence of α2δ subunits” value is “significantly reduces the affinity” and the “recovery from block in presence of α2δ subunits” value is on record as “decreasing recovery from CVID block”. In data set [2], the “reversal of CFA-induced incapacitance” value is “partially reversed impaired weight bearing; also recorded: most effective at reversing mechanical alldoynia; also recorded: most effective at reversal of pain; also recorded: reverse signs of inflammatory pain”.

(Values after paper PMC3853768 (Molecular Pain, 2013).)
